Test systems include BT-549 breast; CAKI-1 renal; HCC-2998 colon; HCT-116 colon; HS 578T breast; IGROV1 ovarian; LOX IMVI melanoma; NCI-H460 lung; SF-539 CNS.
Experiment in all cases: NCI-60 cell line screen, 48 h

We go through 15 compounds from PubChem BioAssay (NCI).

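Cells were grown in 96-well plates and exposed to each compound for 48 hours at five concentrations; endpoints were interpolated linearly between bracketing concentrations, or set to the highest concentration if not reached. At the TGI there is no net growth.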 A value given as a limit tells only on which side of the number the result lay.

Consider `O/N=c1/ccn(O)c2ccccc12`, for which the TGI in the test on BT-549 breast is 3.13 µM; in the test with CAKI-1 renal, 5.99 µM; in the test on HCC-2998 colon it was 0.998 µM; with HCT-116 colon, 11.3 µM; in the test on HS 578T breast, more than 100 µM; in the test with IGROV1 ovarian, 5.12 µM. Further, the TGI in the test on LOX IMVI melanoma was determined as 5.67 µM; in the test on NCI-H460 lung, 3.67 µM; in the test on SF-539 CNS, 2.41 µM.

As to `Cn1c(=O)n2n(c1=O)Cc1cccc3cccc(c13)C2`, the TGI in the test with BT-549 breast, in the test with CAKI-1 renal, in the test with HCC-2998 colon, with HCT-116 colon, in the test on HS 578T breast and in the test on LOX IMVI melanoma was more than 100 µM throughout. Moreover, the TGI in the test with NCI-H460 lung and in the test with SF-539 CNS was more than 100 µM each time.

As for `O=C(NCCN1C(=O)CN=C(c2ccc(Cl)cc2)c2cc(Cl)ccc21)OCc1ccccc1`, the TGI worked out at 32.4 µM with BT-549 breast; 31.9 µM with CAKI-1 renal; 32.7 µM in the test with HCC-2998 colon; 24.8 µM with HCT-116 colon; 40.7 µM in the test on HS 578T breast; 37.8 µM with IGROV1 ovarian. Moreover, the TGI with LOX IMVI melanoma turned out to be 33.9 µM; with NCI-H460 lung it was 32.4 µM; in the test with SF-539 CNS, 38.2 µM.

Regarding `COc1cc2c(cc1OC)C1Cc3ccccc3CCN1CC2` (centres undefined), the TGI with BT-549 breast, with CAKI-1 renal, with HCC-2998 colon, with HCT-116 colon, in the test with HS 578T breast and in the test with IGROV1 ovarian was more than 100 µM throughout. The TGI in the test on LOX IMVI melanoma, in the test on NCI-H460 lung and in the test on SF-539 CNS was more than 100 µM each time.

Consider `CCCCCCCCCCCCCCCC(=O)ON1C(=S)NC(C)(c2ccccc2)C1=S` (centres undefined), for which the TGI in the test with BT-549 breast, in the test on CAKI-1 renal, in the test on HCC-2998 colon, in the test on HCT-116 colon, with HS 578T breast and with IGROV1 ovarian was more than 100 µM each time. Besides, the TGI in the test on LOX IMVI melanoma, in the test with NCI-H460 lung and in the test with SF-539 CNS was more than 100 µM each time.

Regarding `CC(C)(C)c1cc(C(=O)/C=C/c2ccc(O)c(O)c2O)cc(C(C)(C)C)c1O`, the TGI in the test with BT-549 breast is 28.2 µM; in the test on CAKI-1 renal, 15.6 µM; with HCC-2998 colon, 11.7 µM; in the test on HCT-116 colon, 12.7 µM; in the test on HS 578T breast, more than 45.1 µM; in the test with IGROV1 ovarian it was 43.9 µM. In addition, the TGI in the test with LOX IMVI melanoma worked out at 24.3 µM; in the test on NCI-H460 lung it was 6.56 µM; in the test on SF-539 CNS, 10.2 µM.

On to `O=C(CCCN1CCC2(CC1)C(=O)NC(=O)N2c1ccccc1)c1ccc(F)cc1`, for which the TGI in the test on BT-549 breast, in the test with CAKI-1 renal, in the test on HCC-2998 colon, with HCT-116 colon, in the test with HS 578T breast and in the test with IGROV1 ovarian was more than 100 µM in each case. The TGI in the test with LOX IMVI melanoma, in the test on NCI-H460 lung and in the test with SF-539 CNS was more than 100 µM in each case.

Take `O=C1C(C(O)(C(F)(F)Cl)C(F)(F)Cl)CCC1C(O)(C(F)(F)Cl)C(F)(F)Cl` (centres undefined): the TGI in the test on BT-549 breast was more than 10 µM; with CAKI-1 renal it was 9.69 µM; in the test on HCC-2998 colon, more than 10 µM; in the test with HCT-116 colon, 5.71 µM; in the test with HS 578T breast, 5.44 µM; in the test with IGROV1 ovarian, more than 10 µM. The TGI with LOX IMVI melanoma is more than 10 µM; in the test with NCI-H460 lung, more than 10 µM; in the test with SF-539 CNS it was 8.56 µM.

Regarding `COC(=O)C1Cc2c([nH]c3ccccc23)C(c2cccc(O)c2)N1` (centres undefined), the TGI in the test with BT-549 breast is 72 µM; in the test with CAKI-1 renal, more than 100 µM; in the test with HCC-2998 colon it was 48.3 µM; with HCT-116 colon it was more than 100 µM; with HS 578T breast it was more than 100 µM; in the test with IGROV1 ovarian it was more than 100 µM. In addition, the TGI is more than 100 µM in the test with LOX IMVI melanoma, 62 µM in the test with NCI-H460 lung and more than 100 µM with SF-539 CNS.

As for `N#Cc1cccc(C2ON=C(c3ccc([N+](=O)[O-])cc3)N2C23CC4CC(CC(C4)C2)C3)c1` (centres undefined), the TGI in the test on BT-549 breast, in the test with CAKI-1 renal, in the test with HCC-2998 colon, with HCT-116 colon, in the test on HS 578T breast and in the test on IGROV1 ovarian was more than 100 µM each time. Also, the TGI in the test with LOX IMVI melanoma, in the test on NCI-H460 lung and in the test with SF-539 CNS was more than 100 µM in each case.

With `COc1ccc(NC(=O)CC(=O)n2nc(C)c(N=Nc3ccc(C)c(C)c3)c2C)cc1`, the TGI in the test on BT-549 breast was more than 100 µM; in the test with CAKI-1 renal, more than 100 µM; in the test with HCC-2998 colon, more than 100 µM; in the test on HCT-116 colon, more than 100 µM; in the test with HS 578T breast, 97.4 µM; with IGROV1 ovarian, more than 100 µM. The TGI with LOX IMVI melanoma, in the test on NCI-H460 lung and with SF-539 CNS was more than 100 µM in each case.

`CCCCOC(=O)C(=O)C(CC(C(=O)Cc1ccccc1)c1ccccc1)C(=O)C=C(C)C` (centres undefined): the TGI in the test with BT-549 breast, in the test on CAKI-1 renal, in the test with HCC-2998 colon, in the test on HCT-116 colon, with HS 578T breast and in the test on IGROV1 ovarian was more than 100 µM in each case. Moreover, the TGI in the test with LOX IMVI melanoma, in the test with NCI-H460 lung and with SF-539 CNS was more than 100 µM in each case.

With `O=[N+]([O-])c1cccc(N=C2c3ccccc3CN2c2cccc([N+](=O)[O-])c2)c1`, the TGI in the test with BT-549 breast, in the test with CAKI-1 renal, in the test on HCC-2998 colon, in the test on HCT-116 colon, with HS 578T breast and in the test with IGROV1 ovarian was more than 100 µM throughout. For the same compound, the TGI in the test with LOX IMVI melanoma, in the test on NCI-H460 lung and with SF-539 CNS was more than 100 µM each time.

As to `Cc1cccc(/C=N/NC(=S)NCc2ccccn2)n1`, the TGI with BT-549 breast, in the test with CAKI-1 renal, with HCC-2998 colon, with HCT-116 colon, in the test on HS 578T breast and with IGROV1 ovarian was more than 100 µM each time. In addition, the TGI is more than 100 µM in the test with LOX IMVI melanoma, more than 100 µM in the test with NCI-H460 lung and 67.9 µM in the test on SF-539 CNS.

For `O=C(O)c1cccc(S(=O)(=O)NN2C(=O)CSC2c2ccccc2)c1` (centres undefined), the TGI with BT-549 breast, in the test on CAKI-1 renal, in the test with HCC-2998 colon, in the test with HCT-116 colon, in the test on HS 578T breast and in the test with IGROV1 ovarian was more than 100 µM in each case. For the same compound, the TGI in the test on LOX IMVI melanoma, in the test with NCI-H460 lung and with SF-539 CNS was more than 100 µM in each case.
